The values that follow come from patent publication US20180318473A1, “DRUGS WITH IMPROVED HYDROPHOBICITY FOR INCORPORATION IN MEDICAL DEVICES” (Abraxis BioScience, LLC, priority 2005, published 2018).

“And” between values parts separate entries of the source, which are not always exact repeats. Equal entries are not always repeated. Where two headings read alike, the source gives them in different places.

For one data set, the target named is albumin (Homo sapiens, UniProt P02768). Description: Binding of compounds to albumin.
Chain of albumin (P02768 25-609, species assumed): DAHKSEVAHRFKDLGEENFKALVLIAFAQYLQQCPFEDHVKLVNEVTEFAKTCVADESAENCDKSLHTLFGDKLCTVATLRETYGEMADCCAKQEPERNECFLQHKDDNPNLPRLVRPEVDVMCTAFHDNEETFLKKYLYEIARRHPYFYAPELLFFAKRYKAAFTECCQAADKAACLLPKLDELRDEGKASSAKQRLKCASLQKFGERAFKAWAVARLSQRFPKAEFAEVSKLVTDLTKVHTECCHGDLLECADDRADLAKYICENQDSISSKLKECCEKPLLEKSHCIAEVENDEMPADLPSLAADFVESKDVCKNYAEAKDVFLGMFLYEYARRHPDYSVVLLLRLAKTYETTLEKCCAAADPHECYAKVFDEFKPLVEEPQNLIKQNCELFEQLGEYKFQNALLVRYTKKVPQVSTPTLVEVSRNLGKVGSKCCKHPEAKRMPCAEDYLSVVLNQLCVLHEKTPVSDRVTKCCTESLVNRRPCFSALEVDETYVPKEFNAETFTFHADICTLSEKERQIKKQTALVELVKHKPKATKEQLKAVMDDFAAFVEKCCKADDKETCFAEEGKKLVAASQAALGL
The test system of data set [1] is MX-1 mammary tumor cells. Put plainly: Cytotoxic activity on MX-1 mammary tumor cells in culture. The note with it: for IC50: read-out: Cytotoxicity on MX-1, IC50.
A short description of data set [2]: Hydrophobicity by relative elution time from a C18 HPLC column. The note with it: for HPLC retention time (min) Condition 1: acetonitrile / ammonium acetate buffer pH 6.4 with 5 mM TBAP gradient, 0.8 mL/min; for HPLC retention time (min) Condition 1 / HPLC retention time (min) Condition 2: column temperature 35° C.; for HPLC retention time (min) Condition 2: acetonitrile/water gradient 50:50 to 90:10, 1 mL/min; for HPLC retention time (min) Condition 2, column temperature 70° C.: acetonitrile/water gradient, 1 mL/min, **column temperature was set at 70° C. Format: physicochemical. The text has this:
To increase the penetration and retention of a drug released from a device such as a stent into the vascular wall or wall of other vessel or tissue, several drugs were modified to increase their hydrophobicity. […] […] The longer the elution time, the more hydrophobic the compound.

In data set [3] the test system is MX-1 mammary tumor cells.
The mark [4] stands for this setting: smaller number indicates greater binding affinity, read-out: Albumin Binding, KD.
Where [5] appears, read: MX-1 mammary tumor cells in culture, drug itself.

For `CO[C@H]1C[C@@H]2CC[C@@H](C)[C@@](O)(O2)C(=O)C(=O)N2CCCC[C@H]2C(=O)O[C@H]([C@H](C)C[C@@H]2CC[C@@H](O)[C@H](OC)C2)CC(=O)[C@H](C)/C=C(\C)[C@@H](O)[C@@H](OC)C(=O)[C@H](C)C[C@H](C)/C=C/C=C/C=C/1C` [Rapamycin, reference compound], at albumin (setting [4]), the Kd is 102 µM. Moreover, the IC50 in the data set on MX-1 mammary tumor cells [1] (setting [5]) stood at 27 µM.

Regarding `CCc1c2c(nc3ccc(O)cc13)-c1cc3c(c(=O)n1C2)COC(=O)[C@]3(O)CC` [Compound 6], in data set [2], the “HPLC retention time (min) Condition 1” value came to 7.8 min and the “HPLC retention time (min) Condition 2” value is reported as 2.2 min. In addition, the Kd on albumin (setting [4]) came to 484 µM. For the same compound, in the data set on MX-1 mammary tumor cells [1] (setting [5]), the IC50 is 267 µM.

`CCC1(OC(=O)COC)C(=O)OCc2c1cc1n(c2=O)Cc2cc3cc(OC(=O)COC)ccc3nc2-1` (centres unmarked) [Compound 12]: in data set [2], the “HPLC retention time (min) Condition 1” value was determined as 14.1 min. Further, the IC50 with MX-1 mammary tumor cells [1] (setting [5]) was found to be 372 µM.

Consider `CCC1(OC(=O)C(C)C)C(=O)OCc2c1cc1n(c2=O)Cc2cc3cc(OC(=O)C(C)C)ccc3nc2-1` (centres unmarked) [Compound 9], for which the “HPLC retention time (min) Condition 1” value in data set [2] turned out to be 22.0 min. In addition, the IC50 in the data set with MX-1 mammary tumor cells [1] (setting [5]) came to 23 µM.

In the case of Benzoyl rapamycin [Compound 23], in data set [2], the “HPLC retention time (min) Condition 2, column temperature 70° C.” value is on record as 32.6** min.

`CCC(=O)Oc1ccc2nc3c(cc2c1)Cn1c-3cc2c(c1=O)COC(=O)C2(CC)OC(=O)CC` (centres unmarked) [Compound 7]: in data set [2], the “HPLC retention time (min) Condition 1” value was found to be 19.8 min and the “HPLC retention time (min) Condition 2, column temperature 70° C.” value is reported as 6.1** min. In the data set with MX-1 mammary tumor cells [1] (setting [5]), the IC50 came out at 45 µM.

Consider `C=CCNC1=C2C[C@@H](C)C[C@H](OC)[C@H](O)[C@@H](C)/C=C(\C)[C@H](OC(N)=O)[C@@H](OC)/C=C\C=C(/C)C(=O)NC(=CC1=O)C2=O` [Compound 17AAG, 17AAG, reference compound], for which the “HPLC retention time (min) Condition 2” value in data set [2] stood at 14.9 min. For the same compound, the IC50 in the data set with MX-1 mammary tumor cells [1] (setting [5]) came out at 3 µM.

`COc1cc2c(c(OC)c1OC)-c1ccc(SC)c(=O)cc1[C@@H](NC(=O)c1cncc(C(=O)N[C@H]3CCc4cc(OC)c(OC)c(OC)c4-c4ccc(SC)c(=O)cc43)c1)CC2` [Compound 26] showed a Kd at albumin of 28 µM. Further, the IC50 in the data set on MX-1 mammary tumor cells [1] turned out to be 361 µM.

In the case of `COC1=C2C[C@@H](C)C[C@H](OC)[C@H](O)[C@@H](C)/C=C(\C)[C@H](OC(N)=O)[C@@H](OC)/C=C\C=C(/C)C(=O)NC(=CC1=O)C2=O` [Geldanamycin, reference compound], in data set [2], the “HPLC retention time (min) Condition 2” value is on record as 10.8 min. The IC50 in the data set on MX-1 mammary tumor cells [1] (setting [5]) was determined as 0.5 µM.

For `CC(=O)O[C@H]1C(=O)[C@@]2(C)[C@H]([C@H](OC(=O)c3ccccc3)[C@]3(O)C[C@H](OC(=O)[C@H](O)[C@@H](NC(=O)c4ccccc4)c4ccccc4)C(C)=C1C3(C)C)[C@]1(OC(C)=O)CO[C@@H]1C[C@@H]2O` [Paclitaxel, reference compound], in data set [2], the “HPLC retention time (min) Condition 2” value was 10.5 min. On albumin (setting [4]), the Kd is 39.8 µM.

As to `COc1cc2c(c(OC)c1OC)-c1ccc(SC)c(=O)cc1[C@@H](NC(=O)C1CCCC(C(=O)N[C@H]3CCc4cc(OC)c(OC)c(OC)c4-c4ccc(SC)c(=O)cc43)C1)CC2` (some centres unmarked) [Compound 27], the Kd at albumin is 52 µM.

Turning to `CCC(=O)Oc1ccc2nc3c(c(CC)c2c1)Cn1c-3cc2c(c1=O)COC(=O)[C@@]2(CC)OC(=O)CC` [Compound 15], in data set [2], the “HPLC retention time (min) Condition 1” value amounted to 20.8 min and the “HPLC retention time (min) Condition 2, column temperature 70° C.” value is 9.3** min. Moreover, in the data set with MX-1 mammary tumor cells [1] (setting [5]), the IC50 was found to be 28 µM.

With `CCCCCC(=O)Oc1ccc2nc3c(cc2c1)Cn1c-3cc2c(c1=O)COC(=O)C2(CC)OC(=O)CCCCC` (centres unmarked) [Compound 16], the IC50 with MX-1 mammary tumor cells [1] (setting [5]) was determined as 4 µM.

As to `COC1C=CC=C(C)C(=O)NC2=CC(=O)C(N3CC3C)=C(CC(C)CC(OC)C(O)C(C)C=C(C)C1OC(N)=O)C2=O` (centres unmarked) [Compound 30, 17-METHYLAZIRIDINYL-17-DEMETHOXYGELDANAMYCIN], the “HPLC retention time (min) Condition 2” value in data set [2] is 11.1 min and 11.6 min. This compound registered an IC50 in the data set on MX-1 mammary tumor cells [3] of 0.3 µM.

With `CCC1(OC(=O)c2ccccc2)C(=O)OCc2c1cc1n(c2=O)Cc2cc3cc(OC(=O)c4ccccc4)ccc3nc2-1` (centres unmarked) [Compound 14], the “HPLC retention time (min) Condition 1” value in data set [2] came to 22.9 min. For the same compound, the IC50 in the data set on MX-1 mammary tumor cells [1] (setting [5]) was found to be 740 µM.

Consider `CC(=O)OC1C(=O)C2(C)C(O)CC3OCC3(OC(C)=O)C2C(OC(=O)c2ccccc2)C2(O)CC(OC(=O)C(OC(=O)c3ccccc3)C(NC(=O)c3ccccc3)c3ccccc3)C(C)=C1C2(C)C` (centres unmarked) [Compound 1], for which the Kd at albumin (setting [4]) came out at 103 µM. Also, in the data set on MX-1 mammary tumor cells [1] (setting [5]), the IC50 turned out to be 30 µM.

Take `CCCCCCCCCC(=O)Oc1ccc2nc3c(c(CC)c2c1)Cn1c-3cc2c(c1=O)COC(=O)[C@@]2(CC)OC(=O)CCCCCCCCC` [Compound 17]: the “HPLC retention time (min) Condition 2” value in data set [2] amounted to 31.2 min. In addition, the IC50 with MX-1 mammary tumor cells [1] (setting [5]) turned out to be 2000 µM.

Turning to `CCCCCCCCCCCCCCCC(=O)Oc1ccc2nc3c(cc2c1)Cn1c-3cc2c(c1=O)COC(=O)C2(CC)OC(=O)CCCCCCCCCCCCCCC` (centres unmarked) [Compound 22], the “HPLC retention time (min) Condition 2” value in data set [2] was 30.5 min. The “Cytotoxicity on MX-1, IC50” value in the data set on MX-1 mammary tumor cells [1] (setting [5]) is “Inactive”.

With `CCc1c2c(nc3ccc(OC(=O)CCCC(C)CC)cc13)-c1cc3c(c(=O)n1C2)COC(=O)[C@@]3(CC)OC(=O)CCCC(C)CC` (some centres unmarked) [Compound 21], the “HPLC retention time (min) Condition 2” value in data set [2] is reported as 40.2 min. Besides, the half-maximal inhibitory concentration (IC50) in the data set on MX-1 mammary tumor cells [1] (setting [5]) came out at 295 µM.

For `CCCCCC(=O)Oc1ccc2nc3c(cc2c1)Cn1c-3cc2c(c1=O)COC(=O)[C@@]2(CC)OC(=O)CCCCC` [Compound 10, CAMPTOTHECIN 10,20-DI O HEXONATE], the “HPLC retention time (min) Condition 1” value in data set [2] is on record as 25.3 min. Further, the IC50 with MX-1 mammary tumor cells [1] (setting [5]) turned out to be 8 µM.

With `CCC1(OC(=O)CN)C(=O)OCc2c1cc1n(c2=O)Cc2cc3cc(OC(=O)CN)ccc3nc2-1` (centres unmarked) [Compound 13], the “HPLC retention time (min) Condition 1” value in data set [2] is recorded as 6.1 min. In addition, in the data set on MX-1 mammary tumor cells [1] (setting [5]), the IC50 amounted to 242 µM.

For `CCC1(OC(=O)CNC(=O)OC(C)(C)C)C(=O)OCc2c1cc1n(c2=O)Cc2cc3cc(OC(=O)CNC(=O)OC(C)(C)C)ccc3nc2-1` (centres unmarked) [Compound 11], the “HPLC retention time (min) Condition 1” value in data set [2] is recorded as 20.9 min. The IC50 in the data set with MX-1 mammary tumor cells [1] (setting [5]) stood at 221 µM.

As to `CC(=O)O[C@@]12CO[C@@H]1C[C@H](O)[C@@]1(C)C(=O)[C@H](O)C3=C(C)[C@@H](OC(=O)[C@H](O)[C@@H](NC(=O)OC(C)(C)C)c4ccccc4)C[C@@](O)([C@@H](OC(=O)c4ccccc4)[C@H]21)C3(C)C` [Docetaxel, reference compound], in data set [2], the “HPLC retention time (min) Condition 2” value came out at 9.0 min. In addition, the Kd at albumin (setting [4]) stood at 5.45 µM.

Take `CC[C@@]1(O)C(=O)OCc2c1cc1n(c2=O)Cc2cc3cc(O)ccc3nc2-1` [Compound 32]: in data set [2], the “HPLC retention time (min) Condition 1” value was found to be 6.1 min and the “HPLC retention time (min) Condition 2” value is 1.9 min. This compound also gave a Kd at albumin of 1200 µM. The concentration for half-maximal inhibition (IC50) with MX-1 mammary tumor cells [1] was 13 µM.

As for `CC(=O)OC12COC1CC(O)C1(C)C(=O)C(O)C3=C(C)C(OC(=O)C(OC(=O)c4ccccc4)C(NC(=O)OC(C)(C)C)c4ccccc4)CC(O)(C(OC(=O)c4ccccc4)C21)C3(C)C` (centres unmarked) [Compound 2, 2′ BENZOYL DOCETAXEL], at albumin (setting [4]), the Kd came to 8.8 µM. Also, the IC50 in the data set with MX-1 mammary tumor cells [1] is 38 µM.

`CCCCCCCCCCCCCCCCCC(=O)Oc1ccc2nc3c(c(CC)c2c1)Cn1c-3cc2c(c1=O)COC(=O)[C@@]2(CC)OC(=O)CCCCCCCCCCCCCCCCC` [Compound 20]: the “HPLC retention time (min) Condition 2” value in data set [2] came out at 30.6 min. Also, in the data set with MX-1 mammary tumor cells [1] (setting [5]), the “Cytotoxicity on MX-1, IC50” value is “Inactive”.

On albumin, `COc1cc2c(c(OC)c1OC)-c1ccc(SC)c(=O)cc1[C@@H](NC(=O)CCNC(=O)N[C@H]1CCc3cc(OC)c(OC)c(OC)c3-c3ccc(SC)c(=O)cc31)CC2` [Compound 24] registered a Kd of 109 µM. Further, in the data set with MX-1 mammary tumor cells [1], the IC50 was 37 µM.

Consider `CCCCCCCCCCCCCC(=O)Oc1ccc2nc3c(c(CC)c2c1)Cn1c-3cc2c(c1=O)COC(=O)[C@@]2(CC)OC(=O)CCCCCCCCCCCCC` [Compound 18], for which the “HPLC retention time (min) Condition 2” value in data set [2] was 31.2 min. In addition, in the data set on MX-1 mammary tumor cells [1] (setting [5]), the “Cytotoxicity on MX-1, IC50” value is given as “Inactive”.

Take `CCCC(=O)Oc1ccc2nc3c(cc2c1)Cn1c-3cc2c(c1=O)COC(=O)[C@@]2(CC)OC(=O)CCC` [Compound 8]: in data set [2], the “HPLC retention time (min) Condition 1” value came to 21.9 min. Besides, in the data set with MX-1 mammary tumor cells [1] (setting [5]), the IC50 was determined as 152 µM.

`COc1cc2c(c(OC)c1OC)-c1ccc(SC)c(=O)cc1[C@@H](NC(=O)CCCCCCCCC(=O)N[C@H]1CCc3cc(OC)c(OC)c(OC)c3-c3ccc(SC)c(=O)cc31)CC2` [Compound 25] had a Kd on albumin of 30 µM. For the same compound, the IC50 with MX-1 mammary tumor cells [1] came to 155 µM.

On to `CCCCCCCCCCCC(=O)Oc1ccc2nc3c(c(CC)c2c1)Cn1c-3cc2c(c1=O)COC(=O)[C@@]2(CC)OC(=O)CCCCCCCCCCC` [Compound 19], for which, in data set [2], the “HPLC retention time (min) Condition 2” value was determined as 31.2 min. In addition, in the data set on MX-1 mammary tumor cells [1] (setting [5]), the “Cytotoxicity on MX-1, IC50” value was “Inactive”.

One may read the Kd as a measure of binding affinity in units of concentration. By IC50 is commonly meant the concentration that gives 50% inhibition.
